Reference: ChEMBL document CHEMBL3885861, “Open TG-GATES”

Species on record: Rattus norvegicus
Assay: Open TG-GATES - Regimen: Single
Assay type: toxicity, organism-based, Sprague-Dawley
Parameters: regimen Single, gender Male, age 6 weeks
Settings: in vivo, po, 8 mg/kg, route gavage, dose level Low; for APTT / Bas / Eos / Fbg / Hb / Ht / Lym / MCH / MCHC / MCV / Mono / Neu / PT / Plat / RBC / Ret / WBC: tissue Blood; for KIDNEY_L / KIDNEY_R / KIDNEY_TOTAL: tissue Kidney; for LIVER: tissue Liver; for A/G / ALP / ALT / AST / BUN / CRE / Ca / Cl / DBIL / GLC / IP / K / LDH / Na / PL / RALB / TBIL / TC / TG / TP / gamma-GTP: tissue Plasma

SMILES: NC1=NC(=O)C(c2ccccc2)O1 (configuration not stated) [PEMOLINE]
- TERMINAL_BW (3 h): 210.1 g
- APTT (3 h): 15.6 s
- Bas (3 h): 0%
- Eos (3 h): 0.6%
- Fbg (3 h): 289.6 mg/dL
- Hb (3 h): 13.2 g/dL
- Ht (3 h): 38.9%
- Lym (3 h): 79.4%
- MCH (3 h): 21.9 pg
- MCHC (3 h): 34.1%
- MCV (3 h): 64.2 fL
- Mono (3 h): 3.2%
- Neu (3 h): 16.2%
- PT (3 h): 13.2 s
- Plat (3 h): 112.1 x10_4/uL
- RBC (3 h): 605.6 x10_4/ul
- Ret (3 h): 9.3%
- WBC (3 h): 89 x10_2/uL
- KIDNEY_L (3 h): 0.9 g
- KIDNEY_R (3 h): 0.9 g
- KIDNEY_TOTAL (3 h): 1.8 g
- LIVER (3 h): 9 g
- A/G (3 h): 1
- ALP (3 h): 1585.2 IU/L
- ALT (3 h): 44 IU/L
- AST (3 h): 83 IU/L
- BUN (3 h): 8.2 mg/dL
- CRE (3 h): 0.2 mg/dL
- Ca (3 h): 10.7 mg/dL
- Cl (3 h): 106.2 meq/L
- DBIL (3 h): 0.014 mg/dL
- GLC (3 h): 174.2 mg/dL
- IP (3 h): 7.9 mg/dL
- K (3 h): 4.1 meq/L
- LDH (3 h): 68.8 IU/L
- Na (3 h): 139.6 meq/L
- PL (3 h): 126.6 mg/dL
- RALB (3 h): 2.7 g/dL
- TBIL (3 h): 0.042 mg/dL
- TC (3 h): 77 mg/dL
- TG (3 h): 45.8 mg/dL
- TP (3 h): 5.3 g/dL
- gamma-GTP (3 h): 1.4 IU/L
- TERMINAL_BW (6 h): 211.2 g
- APTT (6 h): 15.8 s
- Bas (6 h): 0%
- Eos (6 h): 1%
- Fbg (6 h): 309 mg/dL
- Hb (6 h): 13.5 g/dL
- Ht (6 h): 39.8%
- Lym (6 h): 75.6%
- MCH (6 h): 21.9 pg
- MCHC (6 h): 33.9%
- MCV (6 h): 64.6 fL
- Mono (6 h): 3.4%
- Neu (6 h): 19.6%
- PT (6 h): 13.1 s
- Plat (6 h): 112.7 x10_4/uL
- RBC (6 h): 616.4 x10_4/ul
- Ret (6 h): 8.9%
- WBC (6 h): 81.1 x10_2/uL
- KIDNEY_L (6 h): 0.9 g
- KIDNEY_R (6 h): 0.9 g
- KIDNEY_TOTAL (6 h): 1.8 g
- LIVER (6 h): 8.7 g
- A/G (6 h): 1
- ALP (6 h): 1539 IU/L
- ALT (6 h): 44 IU/L
- AST (6 h): 80 IU/L
- BUN (6 h): 8 mg/dL
- CRE (6 h): 0.2 mg/dL
- Ca (6 h): 10.7 mg/dL
- Cl (6 h): 104.8 meq/L
- DBIL (6 h): 0.014 mg/dL
- GLC (6 h): 186.2 mg/dL
- IP (6 h): 9.9 mg/dL
- K (6 h): 3.9 meq/L
- LDH (6 h): 56.8 IU/L
- Na (6 h): 140.6 meq/L
- PL (6 h): 127 mg/dL
- RALB (6 h): 2.8 g/dL
- TBIL (6 h): 0.042 mg/dL
- TC (6 h): 78.4 mg/dL
- TG (6 h): 37.4 mg/dL
- TP (6 h): 5.5 g/dL
- gamma-GTP (6 h): 1.4 IU/L
- TERMINAL_BW (9 h): 209.7 g
- APTT (9 h): 15.9 s
- Bas (9 h): 0%
- Eos (9 h): 1%
- Fbg (9 h): 319.2 mg/dL
- Hb (9 h): 13.3 g/dL
- Ht (9 h): 39.2%
- Lym (9 h): 77.8%
- MCH (9 h): 21.9 pg
- MCHC (9 h): 34%
- MCV (9 h): 64.2 fL
- Mono (9 h): 2.8%
- Neu (9 h): 18%
- PT (9 h): 13.2 s
- Plat (9 h): 117.5 x10_4/uL
- RBC (9 h): 611 x10_4/ul
- Ret (9 h): 9.2%
- WBC (9 h): 91 x10_2/uL
- KIDNEY_L (9 h): 0.9 g
- KIDNEY_R (9 h): 0.9 g
- KIDNEY_TOTAL (9 h): 1.8 g
- LIVER (9 h): 7.7 g
- A/G (9 h): 1
- ALP (9 h): 1372.4 IU/L
- ALT (9 h): 40.6 IU/L
- AST (9 h): 74.2 IU/L
- BUN (9 h): 8.2 mg/dL
- CRE (9 h): 0.2 mg/dL
- Ca (9 h): 10.4 mg/dL
- Cl (9 h): 106 meq/L
- DBIL (9 h): 0.012 mg/dL
- GLC (9 h): 172.2 mg/dL
- IP (9 h): 9.7 mg/dL
- K (9 h): 3.9 meq/L
- LDH (9 h): 57.4 IU/L
- Na (9 h): 140.4 meq/L
- PL (9 h): 122.4 mg/dL
- RALB (9 h): 2.7 g/dL
- TBIL (9 h): 0.044 mg/dL
- TC (9 h): 78.4 mg/dL
- TG (9 h): 28.4 mg/dL
- TP (9 h): 5.3 g/dL
- gamma-GTP (9 h): 1.4 IU/L
- TERMINAL_BW (24 h): 216.4 g
- APTT (24 h): 16.8 s
- Bas (24 h): 0%
- Eos (24 h): 0.8%
- Fbg (24 h): 274.6 mg/dL
- Hb (24 h): 13 g/dL
- Ht (24 h): 38.4%
- Lym (24 h): 77.8%
- MCH (24 h): 22.1 pg
- MCHC (24 h): 33.9%
- MCV (24 h): 65.2 fL
- Mono (24 h): 3.4%
- Neu (24 h): 17.4%
- PT (24 h): 12.9 s
- Plat (24 h): 118.4 x10_4/uL
- RBC (24 h): 590.2 x10_4/ul
- Ret (24 h): 8.1%
- WBC (24 h): 88.3 x10_2/uL
- KIDNEY_L (24 h): 0.9 g
- KIDNEY_R (24 h): 0.9 g
- KIDNEY_TOTAL (24 h): 1.9 g
- LIVER (24 h): 10 g
- A/G (24 h): 1
- ALP (24 h): 1622.2 IU/L
- ALT (24 h): 43 IU/L
- AST (24 h): 70.2 IU/L
- BUN (24 h): 15.2 mg/dL
- CRE (24 h): 0.2 mg/dL
- Ca (24 h): 11 mg/dL
- Cl (24 h): 105 meq/L
- DBIL (24 h): 0.018 mg/dL
- GLC (24 h): 177.8 mg/dL
- IP (24 h): 8.2 mg/dL
- K (24 h): 3.9 meq/L
- LDH (24 h): 61.8 IU/L
- Na (24 h): 142.2 meq/L
- PL (24 h): 133.8 mg/dL
- RALB (24 h): 2.8 g/dL
- TBIL (24 h): 0.03 mg/dL
- TC (24 h): 76 mg/dL
- TG (24 h): 69.4 mg/dL
- TP (24 h): 5.6 g/dL
- gamma-GTP (24 h): 1 IU/L
